Measurements from the NIST ThermoML archive (doi:10.1016/j.fluid.2017.06.019).
Numbers after ± are expanded uncertainties.

Details: 364.65 K, Coaxial cylinder method

CCC [propane]
Details | thermal conductivity [W/m/K]
3818 kPa, Gas | 0.04192 ± 0.0026
3819 kPa, Gas | 0.04192 ± 0.0029
3820 kPa, Gas | 0.04192 ± 0.0029
3826 kPa, Gas | 0.04799 ± 0.004
3827 kPa, Gas | 0.05041 ± 0.0043
3828 kPa, Gas | 0.05375 ± 0.006
3829 kPa, Gas | 0.05683 ± 0.0063
3830 kPa, Gas | 0.05989 ± 0.0038
3831 kPa, Gas | 0.06347 ± 0.004
3832 kPa, Gas | 0.0673 ± 0.0043
3833 kPa, Gas | 0.07157 ± 0.0045
3834 kPa, Gas | 0.0754 ± 0.0048
3835 kPa, Gas | 0.07969 ± 0.0051
3836 kPa, Gas | 0.08397 ± 0.0054
3837 kPa, Gas | 0.08791 ± 0.0056
3838 kPa, Gas | 0.09202 ± 0.0059
3839 kPa, Gas | 0.09605 ± 0.0062
3840 kPa, Gas | 0.1002 ± 0.0065
3841 kPa, Gas | 0.1044 ± 0.0068
3842 kPa, Gas | 0.1088 ± 0.0071
3843 kPa, Gas | 0.1131 ± 0.0075
3844 kPa, Gas | 0.1173 ± 0.0078
3845 kPa, Gas | 0.1218 ± 0.0081
3846 kPa, Gas | 0.1263 ± 0.0085
3847 kPa, Gas | 0.1307 ± 0.0088
3848 kPa, Gas | 0.135 ± 0.0092
3849 kPa, Gas | 0.14 ± 0.0096
3850 kPa, Gas | 0.1445 ± 0.01
3851 kPa, Gas | 0.1491 ± 0.01
3852 kPa, Gas | 0.1538 ± 0.011
3853 kPa, Gas | 0.1584 ± 0.011
3854 kPa, Gas | 0.1635 ± 0.012
3855 kPa, Gas | 0.1693 ± 0.012
3856 kPa, Gas | 0.1732 ± 0.013
3857 kPa, Gas | 0.1782 ± 0.013
3858 kPa, Gas | 0.1831 ± 0.014
3859 kPa, Gas | 0.1881 ± 0.014
3860 kPa, Gas | 0.1933 ± 0.015
3861 kPa, Gas | 0.1983 ± 0.016
3862 kPa, Gas | 0.2036 ± 0.016
3863 kPa, Gas | 0.2089 ± 0.017
3864 kPa, Gas | 0.2141 ± 0.018
3865 kPa, Gas | 0.2194 ± 0.019
3866 kPa, Gas | 0.2249 ± 0.016
3867 kPa, Gas | 0.2303 ± 0.016
3868 kPa, Gas | 0.2361 ± 0.017
3869 kPa, Gas | 0.2404 ± 0.017
3870 kPa, Liquid | 0.2611 ± 0.024
3871 kPa, Liquid | 0.2548 ± 0.023
3872 kPa, Liquid | 0.249 ± 0.023
3873 kPa, Liquid | 0.2424 ± 0.022
3874 kPa, Liquid | 0.2366 ± 0.021
3875 kPa, Liquid | 0.2306 ± 0.021
3876 kPa, Liquid | 0.2246 ± 0.02
3877 kPa, Liquid | 0.2189 ± 0.02
3878 kPa, Liquid | 0.2127 ± 0.019
3879 kPa, Liquid | 0.2068 ± 0.019
3880 kPa, Liquid | 0.2008 ± 0.018
3881 kPa, Liquid | 0.1952 ± 0.018
3882 kPa, Liquid | 0.1898 ± 0.017
3883 kPa, Liquid | 0.1838 ± 0.017
3884 kPa, Liquid | 0.1778 ± 0.017
3885 kPa, Liquid | 0.1728 ± 0.017
3886 kPa, Liquid | 0.1668 ± 0.016
3887 kPa, Liquid | 0.1613 ± 0.015
3888 kPa, Liquid | 0.1556 ± 0.015
3889 kPa, Liquid | 0.1503 ± 0.015
3890 kPa, Liquid | 0.1444 ± 0.015
3891 kPa, Liquid | 0.1391 ± 0.015
3892 kPa, Liquid | 0.1337 ± 0.014
3893 kPa, Liquid | 0.1279 ± 0.014
3894 kPa, Liquid | 0.1224 ± 0.013
3895 kPa, Liquid | 0.117 ± 0.013
3896 kPa, Liquid | 0.1115 ± 0.013
3897 kPa, Liquid | 0.1061 ± 0.012
3898 kPa, Liquid | 0.1008 ± 0.012
3899 kPa, Liquid | 0.09527 ± 0.012
3900 kPa, Liquid | 0.08987 ± 0.012
3901 kPa, Liquid | 0.08442 ± 0.012
3902 kPa, Liquid | 0.07906 ± 0.011
3903 kPa, Liquid | 0.07632 ± 0.011
3904 kPa, Liquid | 0.0735 ± 0.011
3905 kPa, Liquid | 0.07087 ± 0.0048
3906 kPa, Liquid | 0.06861 ± 0.011
3907 kPa, Liquid | 0.06633 ± 0.01
3908 kPa, Liquid | 0.06424 ± 0.01
3909 kPa, Liquid | 0.06367 ± 0.0043
3910 kPa, Liquid | 0.06367 ± 0.01
3911 kPa, Liquid | 0.06367 ± 0.01
3912 kPa, Liquid | 0.06367 ± 0.0096
3913 kPa, Liquid | 0.06367 ± 0.0096
3914 kPa, Liquid | 0.06367 ± 0.0042
3915 kPa, Liquid | 0.0637 ± 0.0095
3920 kPa, Liquid | 0.06366 ± 0.0089
3925 kPa, Liquid | 0.06366 ± 0.0086
3930 kPa, Liquid | 0.06362 ± 0.0083
3935 kPa, Liquid | 0.06364 ± 0.0083
3940 kPa, Liquid | 0.06364 ± 0.0084
3945 kPa, Liquid | 0.06362 ± 0.0085
3950 kPa, Liquid | 0.06362 ± 0.0066
3955 kPa, Liquid | 0.06362 ± 0.0053
3960 kPa, Liquid | 0.06362 ± 0.0047
3965 kPa, Liquid | 0.06362 ± 0.0044
3970 kPa, Liquid | 0.06362 ± 0.0043
3975 kPa, Liquid | 0.0636 ± 0.0043
3980 kPa, Liquid | 0.0636 ± 0.0042
4000 kPa, Liquid | 0.06363 ± 0.0042
4020 kPa, Liquid | 0.06367 ± 0.0041
4040 kPa, Liquid | 0.06367 ± 0.0041
4060 kPa, Liquid | 0.06371 ± 0.0042
